This note sets out measurements from patent publication US20230271933A1, “HETEROCYCLIC IMMUNOMODULATOR” (Beijing Innocare Pharma Tech Co., Ltd., priority 2020, published 2023).

The target of data set [1] is hERG potassium ion channel (Homo sapiens, UniProt Q12809). As to the kind of experiment: Blockade of the hERG potassium ion channel (whole cell patch clamp). The format is cell-based. The settings on record: HEK293 cells stably overexpressing hERG, pH 7.4, tail current, read-out: The percentage of the inhibition to the hERG current at the solubility of 3 μM (n = 2). On the procedure:
The effect of the compound of the present invention on possible arrhythmias was assessed by determining the blockade of the hERG potassium ion channel.
The experiment method was summarized as follows: • Extracellular fluid: 140 mM NaCl, 3.5 mM KCl, 1 mM MgCl2, 2 mM CaCl2, 10 mM D-glucose, 10 mM HEPES, 1.25 mM NaH2PO4, pH=7.4. • Electrode internal solution: 20 mM KCl, 115 mM K-aspartate, 1 mM MgCl2, 5 mM EGTA, 10 mM HEPES, 2 mM Na2-ATP, pH=7.2. • Compound solution: the compound to be tested was dissolved in DMSO and prepared into a stock solution having a concentration of 10 mM, then diluted into the concentration of 3 mM with DMSO, and then diluted into a solution having a concentration of 3 μM with the extracellular solution for subsequent use. • Cell culture: the HEK293 cell line with the stable hERG potassium channel overexpression (Creacell, Cat. No. A-0320) was cultured in a DMEM medium (Gibco, Cat. No. 11995-065) containing […] (Gibco, Cat. No. 1428478) and 0.8 mg/mL G418 (Amresco, Cat. No. E859-5G) at the culture temperature of 37° C. under the carbon dioxide concentration of […]. The spent medium was removed and the cells were washed once with PBS (Gibco, Cat. No. 1009-141). Then 1 mL TrypLE™ Express solution (Gibco, Cat. No. 12604021) was added and the cells were incubated at 37° C. […]. When the cells were detached from the bottom of the dish, 5 mL of complete medium preheated at 37° C. was added. The cell suspension was transferred to a sterile centrifuge tube and centrifuged at 1000 rpm for 5 minutes before cell collection. Cells were inoculated in 6 cm cell culture dishes at the cell inoculation volume of 2.5*10^5 per dish (final volume: 5 mL). Before the patch clamp detection experiment, 3*10^3 cells were plated on the cover slips, cultured in 24-well plates (final volume: 500 μL), and detected 18 hours later. • Voltage stimulation protocol by recording the whole-cell hERG potassium current with the whole cell patch clamp: after forming a whole-cell seal, the cell membrane voltage was clamped at −80 mV. The clamping voltage was depolarized from −80 mV to −50 mV and maintained for 0.5 seconds (as leakage current detection), then stepped to 30 mV and maintained for 2.5 seconds, then quickly returned to −50 mV and maintained for 4 seconds to excite the hERG channel tail current (Peak tail current), the hERG potassium current was recorded every other 10 seconds. Experiment data were collected with EPC-10 amplifier (HEKA) and stored in PatchMaster (HEKA v2x73) software. • Determination: A capillary glass tube (Sutter Instruments) was drawn into a recording electrode with a microelectrode drawing instrument (Sutter Instruments). The cell-loaded cover slip was removed from the 24-well plate placed in the incubator and then placed under an inverted microscope. […] In the whole-cell recording mode, the slow capacitance compensation was performed and the membrane capacitance and the series resistance were recorded, during which the leakage compensation was not applied. After the hERG tail current recorded with the whole cell was stabilized for 3-5 minutes, 8 mL of the compound-free extracellular fluid (blank control) and 8 mL of 3 μM solution of the compound to be tested were sequentially flowed through the recording bath with the gravity perfusion to act on the cells for 5 minutes (or to the current stabilization). The current detected for each cell in the compound-free extracellular fluid was served as its own control. […]
(hERG is a cardiac potassium channel; its block is linked to QT prolongation.)

The subject of data set [2] is NCI-H929 human myeloma cells. Kind of data set: Inhibition of the proliferation of NCI-H929 cells (luminescent cell viability, CTG). The data set is classed as cell-based. The settings on record: Homo sapiens, NCI-H929, 144 h, 6 days, CellTiter-Glo. The procedure: The effect of the compounds of the present invention on the proliferation of NCI-H929 human myeloma cells was evaluated by using a luminescent cell viability test experiment.
The compound was dissolved and diluted to 5 mM in DMSO, and then serially diluted 4-fold in DMSO to a minimum concentration of 0.31 μM. Each concentration was further diluted 50-fold with RPMI 1640 medium (Thermo Fisher, Cat. No. 72400-047). If the IC50 value of the compound was relatively low, the initial concentration of the compound could be lowered.
NCI-H929 cells (Nanjing Cobioer, Cat. No. CBP60243) were cultured in RPMI 1640 complete medium [containing 10% FBS (GIBCO, Cat. No. 10099-141) and 100 units/mL penicillin-streptomycin (Thermo Fisher, Cat. No. 15140122)]. Cells (15000 cells/mL) were plated in 90 μL of the complete medium in a 96-well plate and cultured overnight, and then 10 μL of the compound solution was added into each well. The cells were cultured in an incubator at 37° C. and 5% CO2 for 6 days. Then the cell culture plate was taken out and balanced to room temperature according to the instruction of the CellTilter-Glo (CTG) kit (Promega, Cat. No. G7572). 50 μL CTG reagent was added for complete lysis, the plate was placed at room temperature for 10 minutes, and the luminescence signal was read with a microplate reader (EnVision, Perkin Elmer). The group containing 0.2% DMSO medium was used as 0% inhibition. The XLfit software was used to plot the compound inhibition curve and calculate the inhibitory IC50 value.
Background: Cellular ATP, detected with luciferase, serves as a proxy for viable cell number.

The test system of data set [3] is TNFα. Kind of data set: Inhibition of TNFα secretion in LPS-stimulated hPBMC (ELISA). The format is cell-based. The settings on record: Homo sapiens, overnight, read-out: IC50 (nM) for the inhibition of the TNFa secretion. The procedure: (§1) The immunomodulatory function of the compound of the present invention was evaluated by detecting its effect on the secretion amount of TNFα and IL-2 in cells from the human peripheral blood mononuclear cells (hPBMC) by the enzyme linked immunosorbent assay (ELISA) method.
(§2) The peripheral blood of healthy volunteers was collected by using EDTA anticoagulant tubes, and diluted with phosphate buffered saline (PBS) containing 2% fetal bovine serum (Gibco, Cat. No. 10099-141) in an equal volume ratio. 30 mL of the resulting diluted sample was transferred into a Sepmate-50 centrifuge tube (Stemcell, Cat. No. 86450) to which 15 mL of a density-gradient centrifugation liquid (Sigma, Cat. No. 10771) had been added in advance, and centrifuged at room temperature at 1200×g for 10 minutes. The liquid containing PBMC in the upper layer was transferred to a new 50-mL centrifuge tube, and centrifuged at room temperature at 300×g for 8 minutes. The supernatant was discarded, and the resulting PBMC was resuspended to 5×10^6/mL by using RPMI 1640 medium (Gibco, Cat. No. 72400-047). 80 μL of the resulting suspension was added to each well in a 96-well plate.
(§3) Each concentration was further diluted 50-fold with RPMI 1640 medium. 10 μL of each compound solution was added into the cells in the above 96-well plate. The 96-well plate was placed in an incubator, and the cells were cultured at 37° C. and 5% CO2 for 1 hour. 10 μL of LPS (Sigma, Cat. No. L-2880) with a concentration of 100 ng/mL was added, and the cells were continuously cultured in the incubator at 37° C. and 5% CO2 overnight. Supernatants were collected for the detection of TNFα.
(§4) TNFα and IL-2 were detected respectively according to each instruction of the ELISA kits (R&D, Cat. No. DY210 and DY202, respectively) to obtain the OD450 values for each well. The group containing 0.2% DMSO medium was used as 0% inhibition or stimulation. The XLfit software was used to plot the compound inhibition or stimulation curve and calculate the corresponding IC50 or EC50.
Background: In an ELISA, binding on a coated surface is turned into a signal by an enzyme label.

Data set [4] deals with IL-2. As to the kind of experiment: Stimulation of IL-2 secretion in anti-CD3-stimulated hPBMC (ELISA). The format is cell-based, human. The settings on record: Homo sapiens, anti-CD3 antibody, 72 hours. On the procedure: as §1, §2, §3
The above-mentioned 96-well plate can also be placed in an incubator, and the cells were cultured at 37° C. and 5% CO2 for 1 hour. 10 μL of anti-CD3 antibody (Thermo Fisher, Cat. No. 14-0037-82) with a concentration of 500 ng/mL was added, and the cells were continuously cultured in the incubator at 37° C. and 5% CO2 for 72 hours. Supernatants were collected for the detection of IL-2.
as §4

Data set [5] can be described thus: In vivo pharmacokinetic experiment in rats. Particulars: male Sprague-Dawley rats, n = 3. On the procedure: The compound to be tested was dissolved in 5% DMA+20% Solutol+75% Saline vehicle to prepare a 0.5 mg/mL administration solution.
2 mL/kg of the administration solution was administered through the intravenous injection (IV) at a dose of 1 mg/kg to three fed male Sprague-Dawley rats, respectively. Blood samples were collected at 0.083, 0.25, 0.5, 1, 2, 4, 8 and 24 hours after administration. 10 mL/kg of the administration solution was administered by gavage (PO) at a dose of 5 mg/kg to other three fed male Sprague-Dawley rats, respectively. Blood samples were collected at 0.25, 0.5, 1, 2, 4, 8 and 24 hours after administration.
The concentration of the compound to be tested in plasma was obtained with the LC-MS/MS quantitative analysis with an API-4500 mass spectrometer, and the limit of quantitation (LOQ) for the plasma was 1 ng/mL.

hERG potassium ion channel, sequence (Q12809 whole entry): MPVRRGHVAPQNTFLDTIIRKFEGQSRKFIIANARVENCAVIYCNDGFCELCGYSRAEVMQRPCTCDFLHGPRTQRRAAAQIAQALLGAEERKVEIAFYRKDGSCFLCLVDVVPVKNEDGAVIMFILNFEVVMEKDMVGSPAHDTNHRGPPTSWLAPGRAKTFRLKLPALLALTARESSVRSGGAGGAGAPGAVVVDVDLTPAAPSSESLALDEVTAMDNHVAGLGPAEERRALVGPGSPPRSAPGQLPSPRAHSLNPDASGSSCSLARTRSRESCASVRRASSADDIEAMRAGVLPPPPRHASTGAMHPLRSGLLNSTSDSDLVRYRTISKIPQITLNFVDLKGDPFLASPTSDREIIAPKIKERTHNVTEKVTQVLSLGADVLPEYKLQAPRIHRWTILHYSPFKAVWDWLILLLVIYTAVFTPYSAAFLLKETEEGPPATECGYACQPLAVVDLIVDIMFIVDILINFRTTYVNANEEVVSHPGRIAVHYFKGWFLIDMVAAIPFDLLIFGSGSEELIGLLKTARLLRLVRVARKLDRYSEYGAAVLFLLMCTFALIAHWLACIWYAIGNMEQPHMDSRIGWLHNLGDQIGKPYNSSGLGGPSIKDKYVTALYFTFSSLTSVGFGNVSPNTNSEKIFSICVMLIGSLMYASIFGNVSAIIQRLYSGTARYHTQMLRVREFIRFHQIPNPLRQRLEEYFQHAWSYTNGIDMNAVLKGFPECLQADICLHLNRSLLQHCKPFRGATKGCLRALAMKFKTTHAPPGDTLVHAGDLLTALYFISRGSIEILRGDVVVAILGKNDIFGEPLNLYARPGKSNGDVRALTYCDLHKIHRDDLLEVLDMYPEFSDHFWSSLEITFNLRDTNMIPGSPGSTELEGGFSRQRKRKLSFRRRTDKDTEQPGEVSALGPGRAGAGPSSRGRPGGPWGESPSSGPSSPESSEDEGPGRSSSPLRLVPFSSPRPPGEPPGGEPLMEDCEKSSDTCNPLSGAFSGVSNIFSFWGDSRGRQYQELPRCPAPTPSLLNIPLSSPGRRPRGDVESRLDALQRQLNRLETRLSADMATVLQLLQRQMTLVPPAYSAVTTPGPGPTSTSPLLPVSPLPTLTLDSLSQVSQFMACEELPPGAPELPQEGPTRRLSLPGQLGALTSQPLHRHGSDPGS

In general, inhibition refers to the percentage by which the read-out fell short of the control. In the case of `N#Cc1ccc(N2CCN(Cc3ccc(COc4cccc5c4CN([C@H]4CCC(=O)NC4=O)C5=O)cc3)CC2)c(F)c1` [CC-92480, reference compound], the inhibition at 5 min, 3 µM in data set [1] is 76%.

Usually IC50 stands for the concentration at which inhibition is half-maximal. By EC50 is commonly meant the concentration needed to bring the measured effect to its halfway point. For orientation: clearance means the volume of plasma or blood freed of the substance per unit of time. In general, AUC(0-t) refers to the area under the concentration-time curve up to a stated or last time point. A higher AUC(0-t) goes with more exposure. The Cmax is the peak of the concentration-time curve. With `C[C@@H](c1ccc(COc2cccc3c2CN([C@H]2CCC(=O)NC2=O)C3=O)cc1)N1CCN(c2ccc(C#N)cc2F)CC1` [Compound 7, 4-(4-((S)-1-(4-(((2-((S)-2,6-dioxopiperidin-3-yl)-1-oxoisoindolin-4-yl)oxy)methyl)phenyl)-ethyl)piperazin-1-yl)-3-fluorobenzonitrile], the IC50 turned out to be 0.2 nM in data set [2] and 2.8 nM in data set [3]. For the same compound, the EC50 in data set [4] worked out at 3.2 nM. Moreover, the F in data set [5] (PO 5 mpk vs IV 1 mpk) was determined as 19%. For the same compound, the clearance in data set [5] (rat, plasma, 1 mg/kg, IV 1 mpk) was 13 mL/min/kg. The Vd in data set [5] (rat, plasma, 1 mg/kg, IV 1 mpk, read-out: VSS) is 2.4 L/kg. This compound also registered an AUC(0-t) in data set [5] (rat, plasma, 5 mg/kg, PO 5 mpk) of 1200 ng·h/mL. The peak level in data set [5] (rat, plasma, 5 mg/kg, PO 5 mpk) (Cmax) was 121 ng/mL.
